According to patent US12251387B2, “Substituted quinoxalines and benzo[c][1,2,5]oxadiazoles as DNA-PK inhibitors” (Vertex Pharmaceuticals Incorporated, priority 2013, dated 2025):

The molecules below were run against DNA-PK (Homo sapiens, UniProt P78527) (assay: DNA-PK Inhibition Assay (standard radiometric kinase assay, 33P-ATP, peptide substrate)). Details: radiometric assay, approximately 6 nM DNA-PK, 100 μM ATP, 45 min; fit to competitive tight-binding inhibition; read-out: Ki for the inhibition of DNA-PK.
Format: biochemical
In short: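 Radiometric transfer of 33P from ATP (100 μM) to peptide substrate (0.8 mg/mL) by about 6 nM DNA-PK with 10 μg/mL sheared dsDNA, pH 7.5 HEPES/MgCl2, 45 min, phosphoric acid quench, filter capture and scintillation counting. Ki fitted to a competitive tight-binding inhibition model.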

Ki, < 100 nM:
Cc1nccc(N[C@H]2CC[C@@H](Oc3cc(C4=COCC4)cc4nccnc34)CC2)n1 [Compound 288], Cc1nccc(N[C@H]2CC[C@@H](Oc3cc(N4CCO[C@H](C)C4)cc4nccnc34)CC2)n1 [Compound 290], c1cnc2c(O[C@H]3CC[C@@H](Nc4ccc5c(n4)OCCO5)CC3)cc(N3CCOCC3)cc2n1 [Compound 631], CNc1nc(N[C@H]2CC[C@@H](Oc3cc(N4CCOCC4)cc4nccnc34)CC2)ncc1F [Compound 482], Clc1cc2nccn2c(N[C@H]2CC[C@@H](Oc3cc(N4CCOCC4)cc4nccnc34)CC2)n1 [Compound 538], COc1nc(N[C@H]2CC[C@@H](Oc3cc(N4CCOCC4)cc4nccnc34)CC2)nc(OC)n1 [Compound 608], c1cnc2c(O[C@H]3CC[C@@H](Nc4ncnc5ccoc45)CC3)cc(N3CCOCC3)cc2n1 [Compound 488], Cc1ncc(-c2cc(N[C@H]3CC[C@@H](Oc4cc(N5CCOCC5)cc5nccnc45)CC3)ncn2)cn1 [Compound 426], COCc1cc(N[C@H]2CC[C@@H](Oc3cc(N4CCOCC4)cc4nccnc34)CC2)nc(C)n1 [Compound 616], c1cnc2c(O[C@H]3CC[C@@H](Nc4ncc(CN5CCCC5)cn4)CC3)cc(N3CCOCC3)cc2n1 [Compound 528], Cc1cccc(N[C@H]2CC[C@@H](Oc3cc(N4CCOCC4)cc4nccnc34)CC2)n1 [Compound 623], c1nc2c(c(N[C@H]3CC[C@@H](Oc4cc(N5CCOCC5)cc5nccnc45)CC3)n1)OCC2 [Compound 464], Cc1cnc(N[C@H]2CC[C@@H](Oc3cc(N4CCOCC4)cc4nccnc34)CC2)c(C)c1 [Compound 595], CC(C)NC(=O)c1cc(N[C@H]2CC[C@@H](Oc3cc(N4CCOCC4)cc4nccnc34)CC2)ncn1 [Compound 643], CCOc1cccc(N[C@H]2CC[C@@H](Oc3cc(N4CCOCC4)cc4nccnc34)CC2)n1 [Compound 588], O=Cc1cnc2cc(N3CCOCC3)cc(O[C@H]3CC[C@@H](Nc4ncccn4)CC3)c2n1 [Compound 620], Fc1c[nH]c2ncnc(N[C@H]3CC[C@@H](Oc4cc(N5CCOCC5)cc5nccnc45)CC3)c12 [Compound 437], Cn1ncc2c(N[C@H]3CC[C@@H](Oc4cc(N5CCOCC5)cc5nccnc45)CC3)ncnc21 [Compound 545], Cn1ccc2c(N[C@H]3CC[C@@H](Oc4cc(N5CCOCC5)cc5nccnc45)CC3)ncnc21 [Compound 384], CCOc1cc(N[C@H]2CC[C@@H](Oc3cc(N4CCOCC4)cc4nccnc34)CC2)ccn1 [Compound 324], CC(C)(C)OC(=O)N1CCn2cnc(N[C@H]3CC[C@@H](Oc4cc(N5CCOCC5)cc5nccnc45)CC3)c2C1 [Compound 296], c1cnc2c(O[C@H]3C[C@@H](Nc4ncnc5ccoc45)C3)cc(N3CCOCC3)cc2n1 [Compound 356], COc1cc(N[C@H]2CC[C@@H](Oc3cc(N4CCOCC4)cc4nccnc34)CC2)ccn1 [Compound 440], COC(c1ccc(N[C@H]2CC[C@@H](Oc3cc(N4CCOCC4)cc4nccnc34)CC2)nc1)C(F)(F)F (some centres unmarked) [Compound 629], CN1CCC(c2cnc(N(C)[C@H]3CC[C@@H](Oc4cc(N5CCOCC5)cc5nccnc45)CC3)nc2)CC1 [Compound 657], FC(F)(F)c1cncc(N[C@H]2CC[C@@H](Oc3cc(N4CCOCC4)cc4nccnc34)CC2)c1 [Compound 429], c1cnc2c(O[C@H]3CC[C@@H](Nc4ncnc5[nH]cnc45)CC3)cc(N3CCOCC3)cc2n1 [Compound 516], Cn1nnnc1-c1cnc(N[C@H]2CC[C@@H](Oc3cc(N4CCOCC4)cc4nccnc34)CC2)nc1 [Compound 459], c1cc2c(c(N[C@H]3CC[C@@H](Oc4cc(N5CCOCC5)cc5nccnc45)CC3)c1)OCC2 [Compound 338]
